Measured values published in PubChem BioAssay AID330 (DTP/NCI, 2004).
Values joined by “and” are separate entries in the source; they are usually repeats but may differ in a detail not shown here. Equal values may be shown once. Inconclusive results and toxic doses are left out. How the source made its calls: active means survival T/C of 150% or more; inactive means T/C below 125% in these data.

Test system: P388 leukemia ip, CD2F1 mice, survival T/C
Test: NCI In Vivo Anticancer Drug Screen. Data for tumor model P388 Leukemia (intraperitoneal) in CD2F1 (CDF1) mice
Conditions: endpoint: median survival time, higher = longer survival
Method in brief: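 Mice carrying the transplanted tumor received test compound or vehicle. Survival was recorded in each group, and the value is the treated-group measurement divided by that of the vehicle-treated control group.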

[1] = dose: 25.0 mg/kg/injection, schedule: Q01DX009 (ip), vehicle: saline with Tween-80
[2] = dose: 50.0 mg/kg/injection, schedule: Q01DX009 (ip), vehicle: saline with Tween-80
[3] = dose: 100.0 mg/kg/injection, schedule: Q01DX009 (ip), vehicle: saline with Tween-80
[4] = dose: 50.0 mg/kg/injection, schedule: Q04DX003 (ip), vehicle: saline with Tween-80
[5] = dose: 100.0 mg/kg/injection, schedule: Q04DX003 (ip), vehicle: saline with Tween-80
[6] = dose: 200.0 mg/kg/injection, schedule: Q04DX003 (ip), vehicle: saline with Tween-80
[7] = dose: 400.0 mg/kg/injection, schedule: Q04DX003 (ip), vehicle: saline with Tween-80
[8] = dose: 60.0 mg/kg/injection, schedule: Q01DX005 (ip), vehicle: saline
[9] = dose: 200.0 mg/kg/injection, schedule: Q01DX009 (ip), vehicle: saline with Tween-80
[10] = dose: 400.0 mg/kg/injection, schedule: Q01DX009 (ip), vehicle: saline with Tween-80

Measured: T/C

CCOP(=S)(OCC)Oc1ccc([N+](=O)[O-])cc1
inactive: dose: 0.06 mg/kg/injection, schedule: Q01DX009 (ip), vehicle: saline 102 % of control | dose: 0.12 mg/kg/injection, schedule: Q01DX009 (ip), vehicle: saline 106 % of control | dose: 0.25 mg/kg/injection, schedule: Q01DX009 (ip), vehicle: saline 107 % of control | dose: 0.5 mg/kg/injection, schedule: Q01DX009 (ip), vehicle: saline 100 % of control

OC1(c2ccccc2)CCCCCC1
inactive: [1] 113 % of control | [2] 106 % of control | [3] 106 % of control and 108 % of control

CC1=C2CCC3(C)C(=C2OC1=O)C(C)=C(Cl)C(Br)C3Br (stereo not drawn)
inactive: dose: 50.0 mg/kg/injection, schedule: Q01DX005 (ip), vehicle: Klucel (hydroxypropylcellulose) (HPC) 102 % of control | dose: 100.0 mg/kg/injection, schedule: Q01DX005 (ip), vehicle: Klucel (hydroxypropylcellulose) (HPC) 111 % of control | dose: 200.0 mg/kg/injection, schedule: Q01DX005 (ip), vehicle: Klucel (hydroxypropylcellulose) (HPC) 118 % of control

NC(=S)c1ccc(N)cc1
inactive: dose: 100.0 mg/kg/injection, schedule: Q04DX003 (ip), vehicle: Klucel (hydroxypropylcellulose) (HPC) 100 % of control | dose: 200.0 mg/kg/injection, schedule: Q04DX003 (ip), vehicle: Klucel (hydroxypropylcellulose) (HPC) 106 % of control

Cc1cc([N+](=O)[O-])c(Cl)cc1NS(=O)(=O)c1ccccc1
inactive: [4] 100 % of control | [5] 95 % of control

CC1CCC2C(C)C3C(CC4C5CC=C6CC(OC7OC(CO)C(O)C(OC8OC(CO)C(O)C(O)C8O)C7OC7OC(C)C(O)C(O)C7O)CCC6(C)C5CCC43C)N2C1 (stereo not drawn)
inactive: dose: 6.25 mg/kg/injection, schedule: Q01DX005 (ip), vehicle: Klucel (hydroxypropylcellulose) (HPC) 91 % of control | dose: 12.5 mg/kg/injection, schedule: Q01DX005 (ip), vehicle: Klucel (hydroxypropylcellulose) (HPC) 95 % of control | dose: 25.0 mg/kg/injection, schedule: Q01DX005 (ip), vehicle: Klucel (hydroxypropylcellulose) (HPC) 89 % of control | dose: 25.0 mg/kg/injection, schedule: Q04DX003 (ip), vehicle: suspension in saline 98 % of control | dose: 50.0 mg/kg/injection, schedule: Q04DX003 (ip), vehicle: suspension in saline 96 % of control | dose: 100.0 mg/kg/injection, schedule: Q04DX003 (ip), vehicle: suspension in saline 105 % of control

C/C=N/NCCC#N
inactive: dose: 6.25 mg/kg/injection, schedule: Q01DX005 (ip), vehicle: saline 100 % of control | dose: 12.5 mg/kg/injection, schedule: Q01DX005 (ip), vehicle: saline 100 % of control | dose: 25.0 mg/kg/injection, schedule: Q01DX005 (ip), vehicle: saline 90 % of control

O=c1c(-c2ccc3c(c2)OCO3)coc2c3c(ccc12)OCO3
inactive: dose: 8.0 mg/kg/injection, schedule: Q01DX005 (ip), vehicle: Klucel (hydroxypropylcellulose) (HPC) 93 % of control | dose: 16.0 mg/kg/injection, schedule: Q01DX005 (ip), vehicle: Klucel (hydroxypropylcellulose) (HPC) 100 % of control | dose: 32.0 mg/kg/injection, schedule: Q01DX005 (ip), vehicle: Klucel (hydroxypropylcellulose) (HPC) 94 % of control | dose: 64.0 mg/kg/injection, schedule: Q01DX005 (ip), vehicle: Klucel (hydroxypropylcellulose) (HPC) 88 % of control

CNc1ccc(O)c2c1C(=O)c1ccccc1C2=O
inactive: dose: 25.0 mg/kg/injection, schedule: Q04DX002 (ip), vehicle: saline with Tween-80 93 % of control | dose: 50.0 mg/kg/injection, schedule: Q04DX002 (ip), vehicle: saline with Tween-80 92 % of control | dose: 100.0 mg/kg/injection, schedule: Q04DX002 (ip), vehicle: saline with Tween-80 101 % of control | dose: 200.0 mg/kg/injection, schedule: Q04DX002 (ip), vehicle: saline with Tween-80 109 % of control

CC(=O)N(O)CC(=O)OCc1ccccc1
inactive: dose: 12.5 mg/kg/injection, schedule: Q01DX009 (ip), vehicle: other 96 % of control | dose: 25.0 mg/kg/injection, schedule: Q01DX009 (ip), vehicle: other 104 % of control | dose: 50.0 mg/kg/injection, schedule: Q01DX009 (ip), vehicle: other 102 % of control | dose: 100.0 mg/kg/injection, schedule: Q01DX009 (ip), vehicle: other 111 % of control | dose: 200.0 mg/kg/injection, schedule: Q01DX009 (ip), vehicle: other 100 % of control

C=CCOc1cccc(OCC=C)c1C
inactive: [5] 113 % of control | [6] 100 % of control | [7] 104 % of control

COc1ccc2c(c1)C1(C)CC(OC1=O)C2=O (stereo not drawn)
inactive: dose: 25.0 mg/kg/injection, schedule: Q01DX001 (ip), vehicle: Klucel (hydroxypropylcellulose) (HPC) 99 % of control | dose: 50.0 mg/kg/injection, schedule: Q01DX001 (ip), vehicle: Klucel (hydroxypropylcellulose) (HPC) 100 % of control | dose: 100.0 mg/kg/injection, schedule: Q01DX001 (ip), vehicle: Klucel (hydroxypropylcellulose) (HPC) 100 % of control

O=C1OC(c2ccc(Cl)cc2)Sc2ccccc21 (stereo not drawn)
inactive: dose: 25.0 mg/kg/injection, schedule: Q04DX003 (ip), vehicle: saline with Tween-80 102 % of control | [4] 93 % of control | [5] 102 % of control | [6] 100 % of control

O=C(N/N=C\C12CC3CC(CC(C3)C1)C2)c1ccncc1
inactive: [2] 96 % of control | [3] 90 % of control

Cn1c([N+](=O)[O-])cnc1N1CCN(c2nncs2)C1=O
inactive: [8] 100 % of control | dose: 120.0 mg/kg/injection, schedule: Q01DX005 (ip), vehicle: saline 101 % of control | dose: 240.0 mg/kg/injection, schedule: Q01DX005 (ip), vehicle: saline 100 % of control

O=c1ccc(=O)c2c(=O)c3cc4[nH]c5ccccc5[nH]c4cc3c(=O)c12
inactive: [1] 94 % of control | [2] 92 % of control | [3] 88 % of control

C=C1C(=O)OCC1(C(=O)OCC)C(=O)OCC
inactive: dose: 4.0 mg/kg/injection, schedule: Q01DX009 (ip), vehicle: saline with Tween-80 117 % of control | dose: 8.0 mg/kg/injection, schedule: Q01DX009 (ip), vehicle: saline with Tween-80 117 % of control and 124 % of control | dose: 16.0 mg/kg/injection, schedule: Q01DX009 (ip), vehicle: saline with Tween-80 115 % of control | dose: 32.0 mg/kg/injection, schedule: Q01DX009 (ip), vehicle: saline with Tween-80 115 % of control

CCOC(=O)c1ccc(N/N=C\C(C)=N/NC(=S)NC)cc1
inactive: dose: 100.0 mg/kg/injection, schedule: Q01DX001 (ip), vehicle: saline 108 % of control | dose: 200.0 mg/kg/injection, schedule: Q01DX001 (ip), vehicle: saline 108 % of control | dose: 400.0 mg/kg/injection, schedule: Q01DX001 (ip), vehicle: saline 100 % of control

Nc1nc(N)c2ncn(-c3ccc(Cl)c(Cl)c3)c2n1
inactive: dose: 50.0 mg/kg/injection, schedule: Q01DX005 (ip), vehicle: saline with Tween-80 101 % of control | dose: 100.0 mg/kg/injection, schedule: Q01DX005 (ip), vehicle: saline with Tween-80 97 % of control | dose: 200.0 mg/kg/injection, schedule: Q01DX005 (ip), vehicle: saline with Tween-80 106 % of control

NC1CONC1=O (stereo not drawn)
inactive: [3] 109 % of control | [5] 100 % of control | [9] 100 % of control | [6] 109 % of control | [10] 100 % of control | [7] 109 % of control

CN(C)c1ccc(N2C(N)=NC(N)=NC2(C)C)cc1
inactive: dose: 15.0 mg/kg/injection, schedule: Q01DX005 (ip), vehicle: saline 94 % of control | dose: 30.0 mg/kg/injection, schedule: Q01DX005 (ip), vehicle: saline 95 % of control | [8] 98 % of control and 95 % of control

CCOC(=O)c1cnn(-c2ccccc2)c1N
inactive: dose: 12.5 mg/kg/injection, schedule: Q01DX009 (ip), vehicle: saline with Tween-80 99 % of control | dose: 12.5 mg/kg/injection, schedule: Q01DX009 (ip), vehicle: saline 99 % of control | [1] 109 % of control | dose: 25.0 mg/kg/injection, schedule: Q01DX009 (ip), vehicle: saline 102 % of control | [2] 101 % of control | dose: 50.0 mg/kg/injection, schedule: Q01DX009 (ip), vehicle: saline 99 % of control | [3] 96 % of control | dose: 100.0 mg/kg/injection, schedule: Q01DX009 (ip), vehicle: saline 103 % of control | [9] 96 % of control | dose: 200.0 mg/kg/injection, schedule: Q01DX009 (ip), vehicle: saline 94 % of control | [10] 99 % of control | dose: 400.0 mg/kg/injection, schedule: Q01DX009 (ip), vehicle: saline 105 % of control

O=C(c1cccs1)C1Cc2ccccc2C1=O (stereo not drawn)
inactive: [5] 95 % of control | [6] 90 % of control | [7] 90 % of control
